Test results reported in patent US20060069132A1, “Azolecarboxamide herbicides” (priority 2004, published 2006).

Tests used:
[1] = system: barnyardgrass; assay: Test A pre-/postemergence herbicide test; type: in vivo, Echinochloa crus-galli
How it was run: (§1)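 Both application timings were run together: directed soil spray over freshly planted seeds in sandy loam, and runoff spray onto 2–10 cm seedlings. Evaluation after ~10 days in greenhouse used a 0–100 visual scale versus untreated controls.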

[2] = system: large crabgrass; assay: Test A pre-/postemergence herbicide test; type: in vivo, Digitaria sanguinalis
How it was run: as §1

[3] = system: redroot pigweed; assay: Test A pre-/postemergence herbicide test; type: in vivo, Amaranthus retroflexus
How it was run: as §1

[4] = system: bermudagrass; assay: Test C pre-/postemergence herbicide test; type: in vivo, Cynodon dactylon
How it was run: (§2)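 Emerged plants at the 1- to 4-leaf stage (2–18 cm), or freshly planted seeds, received test chemicals in a non-phytotoxic solvent mixture with surfactant. Response was visually scored against controls after 12 to 14 days in the greenhouse, on a 0 (no effect) to 100 (complete control) scale.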

[5] = system: woolly cupgrass; assay: Test C pre-/postemergence herbicide test; type: in vivo, Eriochloa villosa; conditions: preemergence
How it was run: as §2

[6] = system: giant foxtail; assay: Test C pre-/postemergence herbicide test; type: in vivo, Setaria faberi; conditions: preemergence
How it was run: as §2

[7] = system: goosegrass; assay: Test C pre-/postemergence herbicide test; type: in vivo, Eleusine indica; conditions: preemergence
How it was run: as §2

[8] = system: common ragweed; assay: Test C pre-/postemergence herbicide test; type: in vivo, Ambrosia elatior; design: key to Plant response rating, Ragweed: 0 = no effect, 100 = complete control; conditions: preemergence
How it was run: as §2

[9] = system: common (oilseed) sunflower; assay: Test C pre-/postemergence herbicide test; type: in vivo, Helianthus annuus; conditions: preemergence
How it was run: as §2

[10] = system: smallflower umbrella sedge; assay: Test C flooded paddy test; type: in vivo, Cyperus difformis; conditions: for Plant response rating, Sedge, Umbrella: 500 g ai/ha, visual rating after 12 to 14 days
[11] = Postemergence, 500 g ai/ha, 0 to 100 scale, 0 no effect, 100 complete control
[12] = Postemergence, 2000 g ai/ha, 0 to 100 scale, 0 no effect, 100 complete control
[13] = Preemergence, 500 g ai/ha, visual rating, 0 to 100 scale (0 no effect, 100 complete control)
[14] = Preemergence, 2000 g ai/ha, 0 to 100 scale, 0 no effect, 100 complete control
[15] = 125 g ai/ha, scale 0 (no effect) to 100 (complete control), visual, 12 to 14 days, preemergence
[16] = 125 g ai/ha, scale 0 (no effect) to 100 (complete control), visual, 12 to 14 days
[17] = 250 g ai/ha, scale 0 to 100 (0 no effect, 100 complete control), visual, 12 to 14 days
[18] = 62 g ai/ha, scale 0 to 100 (0 no effect, 100 complete control)
[19] = 250 g ai/ha, scale of 0 to 100, 0 is no effect, 100 is complete control
[20] = scale 0 to 100 (0 no effect, 100 complete control)
[21] = Preemergence, 2000 g ai/ha, visual rating, 0 to 100 scale (0 no effect, 100 complete control)
[22] = preemergence, 500 g ai/ha, visual injury, 0 to 100 scale (0 no effect, 100 complete control)
[23] = 31 g ai/ha, scale 0 to 100, 0 no effect, 100 complete control, last section of Table C (species set of preemergence test)
[24] = 125 g ai/ha, scale 0 to 100 (0 no effect, 100 complete control)

## CCn1nc(C(C)(C)C)cc1C(=O)Nc1cccc(C(=O)NCC2CC2)c1 [Compound 62]
[1]; [11]
  Plant response rating, Barnyardgrass: 65
[1]; [12]
  Plant response rating, Barnyardgrass: 100
[1]; [13]
  Barnyardgrass plant response rating: 50
[1]; [14]
  Barnyardgrass plant response rating: 95
[2]; [11]
  Plant response rating, Crabgrass, Large: 25
[2]; [12]
  Plant response rating, Crabgrass, Large: 60
[2]; [13]
  Crabgrass, Large plant response rating: 70
[2]; [14]
  Crabgrass, Large plant response rating: 85
[3]; [11]
  Plant response rating, Pigweed: 100
[3]; [12]
  Plant response rating, Pigweed: 100
[3]; [13]
  Pigweed plant response rating: 100
[3]; [14]
  Pigweed plant response rating: 100
[4]; 31 g ai/ha, preemergence, scale 0 to 100
  Plant response rating, Bermudagrass: 0
[4]; 62 g ai/ha, preemergence
  Plant response rating (0 = no effect, 100 = complete control), Bermudagrass: 10
[4]; [15]
  Plant response rating, Bermudagrass: 90
[4]; 250 g ai/ha, scale 0 to 100 (0 no effect, 100 complete control), visual, 12 to 14 days, preemergence
  Plant response rating, Bermudagrass: 95
[5]; 31 g ai/ha, scale 0 to 100
  Plant response rating, Cupgrass, Woolly: 0
[5]; 62 g ai/ha
  Plant response rating (0 = no effect, 100 = complete control), Cupgrass, Woolly: 0
[5]; [16]
  Plant response rating, Cupgrass, Woolly: 0
[5]; [17]
  Plant response rating, Cupgrass, Woolly: 20
[6]; 31 g ai/ha, scale 0 to 100
  Plant response rating, Foxtail, Giant: 5
[6]; 62 g ai/ha
  Plant response rating (0 = no effect, 100 = complete control), Foxtail, Giant: 15
[6]; [16]
  Plant response rating, Foxtail, Giant: 65
[6]; [17]
  Plant response rating, Foxtail, Giant: 85
[7]; 31 g ai/ha, scale 0 to 100
  Plant response rating, Goosegrass: 0
[7]; 62 g ai/ha
  Plant response rating (0 = no effect, 100 = complete control), Goosegrass: 10
[7]; [16]
  Plant response rating, Goosegrass: 70
[7]; [17]
  Plant response rating, Goosegrass: 85
[8]; 31 g ai/ha, scale 0 to 100
  Plant response rating, Ragweed: 0
[8]; 62 g ai/ha
  Plant response rating (0 = no effect, 100 = complete control), Ragweed: 10
[8]; [16]
  Plant response rating, Ragweed: 20
[8]; [17]
  Plant response rating, Ragweed: 85
[9]; 31 g ai/ha, scale 0 to 100
  Plant response rating, Sunflower: 0
[9]; 62 g ai/ha
  Plant response rating (0 = no effect, 100 = complete control), Sunflower: 0
[9]; [16]
  Plant response rating, Sunflower: 0
[9]; [17]
  Plant response rating, Sunflower: 0
[10]; [18]
  Sedge, Umbrella plant response rating: 45
[10]; 125 g ai/ha, scale of 0 to 100, 0 is no effect, 100 is complete control
  Sedge, Umbrella plant response rating: 60
[10]; [19]
  Sedge, Umbrella plant response rating: 80
[10]; [20]
  Plant response rating, Sedge, Umbrella: 85

## CC(=O)c1cccc(NC(=O)c2cc(C(C)(C)C)nn2CCF)c1 [Compound 128]
[1]; [11]
  Barnyardgrass plant response rating: 70
[1]; [12]
  Plant response rating, Barnyardgrass: 80
[1]; [13]
  Barnyardgrass plant response rating: 55
[1]; [21]
  Barnyardgrass plant response rating: 85
[2]; [11]
  Crabgrass, Large plant response rating: 60
[2]; [12]
  Plant response rating, Crabgrass, Large: 70
[2]; [13]
  Crabgrass, Large plant response rating: 90
[2]; [21]
  Crabgrass, Large plant response rating: 100
[3]; [11]
  Pigweed plant response rating: 50
[3]; [12]
  Plant response rating, Pigweed: 80
[3]; [21]
  Pigweed plant response rating: 95
[3]; [22]
  Pigweed plant response rating: 60
[4]; 16 g ai/ha, scale 0 to 100, 0 no effect, 100 complete control, last section of Table C (species set of preemergence test)
  Plant response rating, Bermudagrass: 30
[4]; [23]
  Plant response rating, Bermudagrass: 90
[4]; 62 g ai/ha, preemergence
  Plant response rating (0 = no effect, 100 = complete control), Bermudagrass: 100
[4]; [15]
  Plant response rating, Bermudagrass: 100
[5]; 62 g ai/ha
  Plant response rating (0 = no effect, 100 = complete control), Cupgrass, Woolly: 10
[5]; [16]
  Plant response rating, Cupgrass, Woolly: 20
[6]; 62 g ai/ha
  Plant response rating (0 = no effect, 100 = complete control), Foxtail, Giant: 10
[6]; [16]
  Plant response rating, Foxtail, Giant: 10
[7]; 62 g ai/ha
  Plant response rating (0 = no effect, 100 = complete control), Goosegrass: 80
[7]; [16]
  Plant response rating, Goosegrass: 90
[8]; 62 g ai/ha
  Plant response rating (0 = no effect, 100 = complete control), Ragweed: 10
[8]; [16]
  Plant response rating, Ragweed: 20
[9]; [16]
  Plant response rating, Sunflower: 50
[10]; [18]
  Sedge, Umbrella plant response rating: 80
[10]; [24]
  Sedge, Umbrella plant response rating: 90
[10]; [19]
  Sedge, Umbrella plant response rating: 95
[10]; [20]
  Plant response rating, Sedge, Umbrella: 95

## CCNC(=O)c1ccc(F)c(NC(=O)c2cc(C3(C)CC3)nn2CC)c1 [Compound 300]
[1]; [11]
  Barnyardgrass plant response rating: 75
[1]; [12]
  Plant response rating, Barnyardgrass: 90
[1]; [21]
  Barnyardgrass plant response rating: 100
[1]; [22]
  Barnyardgrass plant response rating: 90
[2]; [11]
  Crabgrass, Large plant response rating: 55
[2]; [12]
  Plant response rating, Crabgrass, Large: 90
[2]; [21]
  Crabgrass, Large plant response rating: 100
[2]; [22]
  Crabgrass, Large plant response rating: 90
[3]; [11]
  Pigweed plant response rating: 90
[3]; [12]
  Plant response rating, Pigweed: 100
[3]; [21]
  Pigweed plant response rating: 100
[3]; [22]
  Pigweed plant response rating: 95
[4]; [23]
  Plant response rating, Bermudagrass: 80
[4]; 62 g ai/ha, preemergence, scale 0 to 100, 0 no effect, 100 complete control
  Plant response rating, Bermudagrass: 95
[4]; [15]
  Plant response rating, Bermudagrass: 100
[4]; 250 g ai/ha, scale 0-100, preemergence
  Plant response rating, Bermudagrass: 100
[5]; 62 g ai/ha, scale 0 to 100
  Plant response rating, Cupgrass, Woolly: 20
[5]; [16]
  Plant response rating, Cupgrass, Woolly: 50
[5]; 250 g ai/ha, scale 0-100
  Plant response rating, Cupgrass, Woolly: 60
[6]; 62 g ai/ha, scale 0 to 100
  Plant response rating, Foxtail, Giant: 30
[6]; [16]
  Plant response rating, Foxtail, Giant: 65
[6]; 250 g ai/ha, scale 0-100
  Plant response rating, Foxtail, Giant: 100
[7]; 62 g ai/ha, scale 0 to 100
  Plant response rating, Goosegrass: 85
[7]; [16]
  Plant response rating, Goosegrass: 100
[7]; 250 g ai/ha, scale 0-100
  Plant response rating, Goosegrass: 100
[8]; 62 g ai/ha, scale 0 to 100
  Plant response rating, Ragweed: 5
[8]; 250 g ai/ha, scale 0-100
  Plant response rating, Ragweed: 10
[9]; 62 g ai/ha, scale 0 to 100
  Plant response rating, Sunflower: 0
[9]; 250 g ai/ha, scale 0-100
  Plant response rating, Sunflower: 5
[10]; 62 g ai/ha, scale 0 to 100
  Sedge, Umbrella plant response rating: 80
[10]; [24]
  Sedge, Umbrella plant response rating: 80
[10]; [19]
  Sedge, Umbrella plant response rating: 85
[10]; [20]
  Plant response rating, Sedge, Umbrella: 90
